The target of data set [1] is T1, wild type AXL (wtAXL) receptor tyrosine kinase (Homo sapiens, UniProt P30530).
T1 construct: WtAXL cDNA was cloned into vector pLXSN(ESK) and transfected into Phoenix E packaging cells; expressed in transfected cells; host or cells: NIH3T3 N7 mouse fibroblasts, retrovirally infected (clone 22)
T1 sequence (P30530 26-894): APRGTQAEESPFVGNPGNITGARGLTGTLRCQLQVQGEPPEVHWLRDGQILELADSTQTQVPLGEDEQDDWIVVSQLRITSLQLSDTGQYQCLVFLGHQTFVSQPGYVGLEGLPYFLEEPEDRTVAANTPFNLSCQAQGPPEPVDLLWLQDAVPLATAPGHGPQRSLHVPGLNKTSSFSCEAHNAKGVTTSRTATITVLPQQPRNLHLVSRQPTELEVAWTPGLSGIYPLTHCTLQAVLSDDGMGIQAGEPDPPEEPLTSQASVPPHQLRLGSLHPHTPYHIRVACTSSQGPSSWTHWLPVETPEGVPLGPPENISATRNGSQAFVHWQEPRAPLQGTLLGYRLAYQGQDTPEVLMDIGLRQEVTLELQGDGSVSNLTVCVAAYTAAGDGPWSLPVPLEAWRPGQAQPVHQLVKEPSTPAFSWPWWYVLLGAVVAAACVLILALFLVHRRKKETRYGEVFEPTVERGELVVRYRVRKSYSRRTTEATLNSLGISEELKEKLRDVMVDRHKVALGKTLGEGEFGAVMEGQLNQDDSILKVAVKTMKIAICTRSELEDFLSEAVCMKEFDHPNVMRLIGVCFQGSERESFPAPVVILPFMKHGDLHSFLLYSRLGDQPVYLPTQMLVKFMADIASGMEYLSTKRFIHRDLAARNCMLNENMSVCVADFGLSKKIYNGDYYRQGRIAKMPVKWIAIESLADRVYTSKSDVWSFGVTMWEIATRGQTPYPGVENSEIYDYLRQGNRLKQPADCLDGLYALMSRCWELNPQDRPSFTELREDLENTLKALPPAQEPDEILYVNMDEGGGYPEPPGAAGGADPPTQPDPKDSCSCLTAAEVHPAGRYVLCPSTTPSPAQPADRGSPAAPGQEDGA
In words: NIH-3T3-AXL cellular tyrosine kinase assay (inhibition of AXL phosphorylation). It is filed as cell-based. The conditions noted are these: AXL phosphorylation in NIH-3T3-AXL (clone 22) cells, serum-depleted, 2 h with compound, immunoprecipitation / anti-phosphotyrosine blot. An outline of the steps:
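Compound inhibition of AXL autophosphorylation was read by 4G10 immunoblot after anti-AXL immunoprecipitation from lysates. Cells: NIH3T3 lines stably carrying retroviral wild-type human AXL, treated 2 h with compound dilution series.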

In patent US9206130B2, “Quinoline derivatives as AXL kinase inhibitors” (Max-Planck-Gesellschaft zur Förderung der Wissenschaften …, priority 2008, dated 2015) one finds IC50 and melting point data, which are given here for 25 compounds.

In general, IC50 refers to the midpoint of a concentration-inhibition curve. By melting point is commonly meant the temperature of the solid-liquid transition.

For the compound `Cc1cc(Oc2ccc(NS(=O)(=O)c3ccc(F)c(Cl)c3)c(F)c2)c2cccc(C(F)(F)F)c2n1` [Example C12, 3-Chloro-4-fluoro-N-[2-fluoro-4-(2-methyl-8-trifluoromethyl-quinolin-4-yloxy)-phenyl]-benzenesulfonamide], the melting point lay in the range of 202 to 203 °C. In addition, the IC50 in data set [1] is more than 10 µM.
The corresponding values for `COc1cc2nccc(Oc3ccc(NS(=O)(=O)c4cccs4)c(F)c3)c2cc1OC` [Example A4] are 214 to 216 °C and 6 µM.
Consider `COc1cc2nccc(Oc3ccc(NS(=O)(=O)/C=C/c4ccccc4)c(F)c3)c2cc1OC` [Example A16, 2-Phenyl-ethenesulfonic acid [4-(6,7-dimethoxy-quinolin-4-yloxy)-2-fluoro-phenyl]-amide], for which the melting point lay within 224 to 225 °C. Also, in data set [1], the IC50 was 1.81 µM.
In turn, `COc1cc2nccc(Oc3ccc(NS(=O)(=O)c4cccc(Oc5ccccc5)c4)cc3F)c2cc1OC` [Example A98, N-[4-(6,7-Dimethoxy-quinolin-4-yloxy)-3-fluoro-phenyl]-3-phenoxy-benzenesulfonamide] returned a melting point of 197 to 199 °C. The IC50 in data set [1] stood at 0.74 µM.
The corresponding values for `Cc1cc(Oc2ccc(NS(=O)(=O)c3ccc(F)c(Cl)c3)c(F)c2)c2cc(F)ccc2n1` [Example B5, 3-Chloro-4-fluoro-N-[2-fluoro-4-(6-fluoro-2-methyl-quinolin-4-yloxy)-phenyl]-benzenesulfonamide] are 205 to 207 °C and more than 10 µM.
`COc1cc(S(=O)(=O)Nc2ccc(Oc3ccnc4cc(OC)c(OC)cc34)c(F)c2)ccc1F` [Example A109, N-[4-(6,7-Dimethoxy-quinolin-4-yloxy)-3-fluoro-phenyl]-4-fluoro-3-methoxy-benzenesulfonamide]: the melting point was in the range of 202 to 204 °C. In data set [1], the IC50 was more than 1 µM.
The compound `COc1cc2nccc(Oc3ccc(NS(=O)(=O)c4ccc(OC)c(C(C)(C)C)c4)cc3)c2cc1OC` [Example A70, 3-tert-Butyl-N-[4-(6,7-dimethoxy-quinolin-4-yloxy)-phenyl]-4-methoxy-benzenesulfonamide] came in with a melting point of 229 to 231 °C. In addition, in data set [1], the IC50 was more than 10 µM.
The corresponding values for `Cc1cc(Oc2ccc(NS(=O)(=O)c3ccccc3)cc2)c2cc(F)ccc2n1` [Example B9, N-[4-(6-Fluoro-2-methyl-quinolin-4-yloxy)-phenyl]-benzenesulfonamide] are 207 to 208 °C and more than 10 µM.
The corresponding values for `COc1cc2nccc(Oc3ccc(NS(=O)(=O)c4cc(Cl)c(C)cc4OC)cc3)c2cc1OC` [Example A69, 5-Chloro-N-[4-(6,7-dimethoxy-quinolin-4-yloxy)-phenyl]-2-methoxy-4-methyl-benzenesulfonamide] are 236 to 238 °C and more than 10 µM.
`Cc1cc(Oc2ccc(NS(=O)(=O)c3ccccc3C(F)(F)F)c(F)c2)c2cccc(C(F)(F)F)c2n1` [Example C07, N-[2-Fluoro-4-(2-methyl-8-trifluoromethyl-quinolin-4-yloxy)-phenyl]-2-trifluoromethyl-benzenesulfonamid] gave a melting point of 183 to 185 °C. For the same compound, the IC50 in data set [1] is more than 10 µM.
Compound `COc1cc2nccc(Oc3ccc(NS(=O)(=O)c4csc5ccccc45)cc3F)c2cc1OC` [Example A108, Benzo[b]thiophene-3-sulfonic acid [4-(6,7-dimethoxy-quinolin-4-yloxy)-3-fluoro-phenyl]-amide] had a melting point of 191 to 193 °C. Further, the IC50 in data set [1] is more than 1 µM.
Turning to `COc1cc2nccc(Oc3ccc(NS(=O)(=O)c4ccc(Cl)s4)c(F)c3)c2cc1OC` [Example A28, 5-Chloro-thiophene-2-sulfonic acid [4-(6,7-dimethoxy-quinolin-4-yloxy)-2-fluoro-phenyl]-amide], the melting point lay in the range of 187 to 189 °C. Further, in data set [1], the IC50 is 3.9 µM.
The corresponding values for `COc1cc2c(Oc3ccc(NS(=O)(=O)c4cccc(-c5ccccc5)c4)cc3F)ccnc2cc1OCCCN1CCC(C)CC1` [Example D29, Biphenyl-3-sulfonic acid (3-fluoro-4-{6-methoxy-7-[3-(4-methyl-piperidin-1-yl)-propoxy]-quinolin-4-yloxy}-phenyl)-amide] are 196 to 198 °C and 0.178 µM.
The corresponding values for `COc1cc(S(=O)(=O)Nc2ccc(Oc3ccnc4cc(OC)c(OC)cc34)c(OC)c2)ccc1F` [Example A121, N-[4-(6,7-Dimethoxy-quinolin-4-yloxy)-3-methoxy-phenyl]-4-fluoro-3-methoxy-benzenesulfonamide] are 109 to 110 °C and more than 10 µM.
In turn, `COc1cc2nccc(Oc3ccc(NS(=O)(=O)c4ccc(OC)c5ccccc45)cc3)c2cc1OC` [Example A133, 4-Methoxy-naphthalene-1-sulfonic acid [4-(6,7-dimethoxy-quinolin-4-yloxy)-phenyl]-amide] had a melting point of 240 to 242 °C. Further, the IC50 in data set [1] was more than 10 µM.
The corresponding values for `COc1cc2nccc(Oc3ccc(NS(=O)(=O)c4cc(Cl)ccc4OC)cc3)c2cc1OC` [Example A68, 5-Chloro-N-[4-(6,7-dimethoxy-quinolin-4-yloxy)-phenyl]-2-methoxy-benzenesulfonamide] are 255 to 257 °C and more than 10 µM.
In the case of `Cc1cc(Oc2ccc(NS(=O)(=O)c3cc(F)ccc3F)c(F)c2)c2cccc(C(F)(F)F)c2n1` [Example C11, 2,5-Difluoro-N-[2-fluoro-4-(2-methyl-8-trifluoromethyl-quinolin-4-yloxy)-phenyl]-benzenesulfonamide], the melting point fell in the range of 179 to 181 °C. For the same compound, the IC50 in data set [1] is more than 10 µM.
Take `COc1cc2c(Oc3ccc(NS(=O)(=O)c4ccccc4Br)cc3F)ccnc2cc1OCCCN1CCC(C)CC1` [Example D18, 2-Bromo-N-(3-fluoro-4-{6-methoxy-7-[3-(4-methyl-piperidin-1-yl)-propoxy]-quinolin-4-yloxy}-phenyl)-benzenesulfonamide]: the melting point fell in the range of 184 to 186 °C. In addition, the IC50 in data set [1] amounted to 0.151 µM.
`COc1cc2nccc(Oc3ccc(NS(=O)(=O)c4ccccc4Br)c(F)c3)c2cc1OC` [Example A55, 2-Bromo-N-[4-(6,7-dimethoxy-quinolin-4-yloxy)-2-fluoro-phenyl]-benzenesulfonamide] yielded a melting point of 225 to 227 °C. Further, the IC50 in data set [1] was more than 1 µM.
For `COc1cc2nccc(Oc3ccc(NS(=O)(=O)c4cccc(-c5ncccn5)c4)cc3F)c2cc1OC` [Example A101, N-[4-(6,7-Dimethoxy-quinolin-4-yloxy)-3-fluoro-phenyl]-3-pyrimidin-2-yl-benzenesulfonamide], the melting point was in the range of 105 to 107 °C. Moreover, the 50% inhibitory concentration (IC50) in data set [1] is more than 1 µM.
The corresponding values for `Cc1cc(Oc2ccc(NS(=O)(=O)c3cc(Cl)cc(Cl)c3)cc2)c2cc(F)ccc2n1` [Example B10, 3,5-Dichloro-N-[4-(6-fluoro-2-methyl-quinolin-4-yloxy)-phenyl]-benzenesulfonamide] are 238 to 240 °C and more than 10 µM.
As for `Cc1cc(Oc2ccc(NS(=O)(=O)c3cccc(C(F)(F)F)c3)c(F)c2)c2cc(F)ccc2n1` [Example B8, N-[2-Fluoro-4-(6-fluoro-2-methyl-quinolin-4-yloxy)-phenyl]-3-trifluoromethyl-benzenesulfonamide], the melting point lay in the range of 150 to 152 °C. The IC50 in data set [1] is more than 10 µM.
The corresponding values for `COc1cc2nccc(Oc3ccc(NS(=O)(=O)c4cccc(-c5ncccn5)c4)c(C)c3)c2cc1OC` [Example A93, N-[4-(6,7-Dimethoxy-quinolin-4-yloxy)-2-methyl-phenyl]-3-pyrimidin-2-yl-benzenesulfonamide] are 103 to 105 °C and more than 3 µM.
The corresponding values for `Cc1cc(Oc2ccc(NS(=O)(=O)C3CC3)c(F)c2)c2cc(F)ccc2n1` [Example B4, Cyclopropanesulfonic acid [2-fluoro-4-(6-fluoro-2-methyl-quinolin-4-yloxy)-phenyl]-amide] are 189 to 190 °C and more than 10 µM.
`Cc1cc(Oc2ccc(NS(=O)(=O)c3cccc(C#N)c3)c(F)c2)c2cc(F)ccc2n1` [Example B2, 3-Cyano-N-[2-fluoro-4-(6-fluoro-2-methyl-quinolin-4-yloxy)-phenyl]-benzenesulfonamide] came in with a melting point of 190 to 191 °C. For the same compound, the IC50 in data set [1] is more than 10 µM.
